Where two headings read alike, the source gives them in different places.
System: HCV 1b genotype
Experiment: HCV Replicon assay (HCV-neo replicon cells, wild-type)
Type: cell-based
[1] = Hepatitis C virus, HCV 1b genotype replicon, range class A-D, read-out: 1b EC50 (in μM or range)

Structure (SMILES)	EC50 [1] [nM]	further results
O=C(Nc1ccc(C#Cc2ccc(NC(=O)[C@@H]3CCCN3C(=O)OCc3ccccc3)cc2)cc1)[C@@H]1CCCN1C(=O)OCc1ccccc1 [Example D1, Dibenzyl(2S,2′S)-2,2′-(1,2-ethynediylbis(4,1-phenylenecarbamoyl))di(1-pyrrolidinecarboxylate)]	4.57 to 99	
CC(=O)O[C@@H]1C[C@@H](C(=O)Nc2ccc(C#Cc3ccc(NC(=O)[C@@H]4CCCN4C(C)=O)cc3)cc2)N(C(=O)Cc2ccccc2)C1 [Example D27, (3R,5S)-5-((4-((4-((((2S)-1-Acetyl-2-pyrrolidinyl)carbonyl)amino)phenyl)ethynyl)phenyl)carbamoyl)-1-(phenylacetyl)-3-pyrrolidinyl acetate]	4.57 to 99	
CCc1sc(Cl)nc1C(=O)N1CCC[C@H]1C(=O)Nc1ccc(C#Cc2ccc(NC(=O)[C@@H]3CCCN3C(=O)c3nc(Cl)sc3CC)cc2)cc1 [Example D36.1, (2S,2′S)-N,N′-(4,4′-(ethyne-1,2-diyl)bis(4,1-phenylene))bis(1-(2-chloro-5-ethylthiazole-4-carbonyl)pyrrolidine-2-carboxamide)]		EC50 (HCV 1b genotype replicon, range class A-D, read-out: 1b EC50 (in μM or range)): 100 to 999 nM
O=C(Nc1ccc(C#Cc2ccc(NC(=O)C3CCN(C(=O)OCc4ccccc4)C3)cc2)cc1)C1CCN(C(=O)OCc2ccccc2)C1 (stereo not drawn) [Example D5, Dibenzyl3,3′-(1,2-ethynediylbis(4,1-phenylenecarbamoyl))di(1-pyrrolidinecarboxylate)]	1000 to 10000	
CN1CCN(C(C(=O)N2CCC[C@H]2C(=O)Nc2ccc(C#Cc3ccc(NC(=O)[C@@H]4CCCN4C(=O)C(c4ccccc4)N4CCN(C)CC4)cc3)cc2)c2ccccc2)CC1 (stereo partly drawn) [VA44, (2S,2′S)-N,N′-(1,2-ethynediyldi-4,1-phenylene)bis(1-((4-methyl-1-piperazinyl)(phenyl)acetyl)-2-pyrrolidinecarboxamide)]		EC50 (Hepatitis C virus, read-out: 1b EC50 (in μM or range), HCV 1b genotype replicon, range class A-D): < 4.57 nM
C[C@@H](C(=O)N1CCC[C@H]1C(=O)Nc1ccc(C#Cc2ccc(NC(=O)[C@@H]3CCCN3C(=O)[C@H](C)c3ccccc3)nc2)cn1)c1ccccc1 [Example D50, (2S,2′S)-N,N′-(1,2-ethynediyldi-5,2-pyridinediyl)bis(1-((2R)-2-phenylpropanoyl)-2-pyrrolidinecarboxamide)]	< 4.57	
O=C(Nc1ccc(C#Cc2ccc(NC(=O)[C@@H]3CCCN3C(=O)[C@H](O)c3ccccc3)cc2)cc1)[C@@H]1CCCN1C(=O)c1nc(Cl)cc2ccccc12 [Example D44, (2S)-1-((3-Chloro-1-isoquinolinyl)carbonyl)-N-(4-((4-((((2S)-1-((2R)-2-hydroxy-2-phenylacetyl)-2-pyrrolidinyl)carbonyl)amino)phenyl)ethynyl)phenyl)-2-pyrrolidinecarboxamide]	< 4.57	
O=C(Nc1ccc(C#Cc2ccc(NC(=O)[C@@H]3CCCN3C(=O)OCc3ccccc3)cc2)cc1)C1CCC1 [Example D20, Benzyl (2S)-2-((4-((4-((cyclobutylcarbonyl)amino)phenyl)ethynyl)phenyl)carbamoyl)-1-pyrrolidinecarboxylate]	100 to 999	
CN(C)C(C)(C(=O)N1CCC[C@H]1C(=O)Nc1ccc(C#Cc2ccc(NC(=O)[C@@H]3CCCN3C(=O)C(C)(c3ccccc3)N(C)C)cc2)cc1)c1ccccc1 (stereo partly drawn) [VN37, (2S,2′S)-N,N′-(1,2-ethynediyldi-4,1-phenylene)bis(1-(2-(dimethylamino)-2-phenylpropanoyl)-2-pyrrolidinecarboxamide)]	< 4.57	
O=C(Nc1ccc(C#Cc2ccc(NC(=O)[C@@H]3CCCN3C(=O)/C=C/c3ccccc3)cn2)nc1)[C@@H]1CCCN1C(=O)/C=C/c1ccccc1 [Example D53, (2S,2′S)-N,N′-(1,2-ethynediyldi-2,5-pyridinediyl)bis(1-((2E)-3-phenyl-2-propenoyl)-2-pyrrolidinecarboxamide)]		EC50 (Hepatitis C virus, HCV 1b genotype replicon, read-out: 1b EC50 (in μM or range)): 2730 nM
COC(=O)N[C@@H](C(=O)N1CCC[C@H]1C(=O)Nc1ccc(C#Cc2ccc(NC(=O)[C@@H]3CCCN3C(=O)[C@H](NC(=O)OC)c3ccccc3)cc2)cc1)c1ccccc1 [VN55, Dimethyl (1,2-ethynediylbis(4,1-phenylenecarbamoyl(2S)-2,1-pyrrolidinediyl((1R)-2-oxo-1-phenyl-2,1-ethanediyl)))biscarbamate]		EC50 (HCV 1b genotype replicon, read-out: 1b EC50 (in μM or range)): 0.013 nM
O=C(Nc1ccc(C#Cc2ccc(NC(=O)[C@@H]3CCCN3C(=O)c3nc(Cl)cc4ccccc34)cc2)cc1)[C@@H]1CCCN1C(=O)CC1CC1 [Example D38, (2S)-1-((3-Chloro-1-isoquinolinyl)carbonyl)-N-(4-((4-((((2S)-1-(cyclopropylacetyl)-2-pyrrolidinyl)carbonyl)amino)phenyl)ethynyl)phenyl)-2-pyrrolidinecarboxamide]	4.57 to 99	

Reference: patent US8383094B2, “Hepatitis C virus inhibitors” (Bristol-Myers Squibb Company, priority 2008, dated 2013)
